Results as given in publication PMC7669867, “Synthesis and initial screening of lactate dehydrogenase inhibitor activity of 1,3-benzodioxole derivatives” (Scientific Reports, 2020).
Like-named read-outs stand apart in the source and are kept apart here.

Tests used:
[1] = molecular target: T1, purified recombinant human LDHB protein (Homo sapiens, UniProt P07195); experiment: In vitro LDHB activity assay (NAD+ converted to NADH); type: biochemical; conditions: synthesized compounds; read-out: LDHB IC50
T1 construct: purchased Abcam
T1 sequence (P07195 whole entry): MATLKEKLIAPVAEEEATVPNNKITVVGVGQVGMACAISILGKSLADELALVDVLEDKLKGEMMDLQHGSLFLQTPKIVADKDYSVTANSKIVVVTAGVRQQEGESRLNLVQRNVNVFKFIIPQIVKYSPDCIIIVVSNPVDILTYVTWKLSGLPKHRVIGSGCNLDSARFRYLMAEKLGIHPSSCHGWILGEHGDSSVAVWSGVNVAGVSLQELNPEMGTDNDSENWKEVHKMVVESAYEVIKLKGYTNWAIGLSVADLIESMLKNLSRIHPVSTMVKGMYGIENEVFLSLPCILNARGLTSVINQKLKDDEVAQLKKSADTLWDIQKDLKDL
Experimental: (§1) The in vitro evaluation of the LDHA inhibitor activities of the synthesized compounds was determined by the NADH intensity decrease through oxidation in a solution of HEPES-K^+, NADH, and pyruvate at a pH = 7.2. The NADH oxidation fluorescence intensity was measured using a spectrofluorometer at 340 nm excitation and 460 nm emission wavelengths, representing the NADH-specific fluorescence spectrum. Furthermore, the in vitro evaluation of the LDHB inhibitor activity was determined as a reverse reaction, which converts lactate to pyruvate by determining the amount of NAD^+ converted to NADH using the above-mentioned spectrophotometric experimental setting (Table 2). Based on this analysis, the half-maximal inhibitory concentration (IC50) of the synthesized compounds was obtained.
In vitro analysis was determined the amount of NAD^+ converted to NADH[33]. The assay mixture composed of 100 mM Tris–HCl buffer (pH 8.0), 200 mM sodium L-lactate, 2.5 mM NAD^+, and 100 ng of purified recombinant human LDHB protein (Abcam). The fluorescence intensity of NADH was measured using a spectrofluorometer (Spectramax M2) at 340 nm as excitation wavelength and 460 nm as emission wavelength which is the specific fluorescence of NADH.

CYP2D6 = molecular target: T2, CYP2D6 (Homo sapiens, UniProt P10635); experiment: CYP isozymes activity assay, CYP2D6; type: in vitro ADME; conditions: microsomes, 0.1 µM
T2 construct: Pooled Human liver microsomes (Sigma-Aldrich; 0.25 mg/mL); tissue Sigma-Aldrich; host or cells: pooled human liver microsomes
T2 sequence (P10635 whole entry): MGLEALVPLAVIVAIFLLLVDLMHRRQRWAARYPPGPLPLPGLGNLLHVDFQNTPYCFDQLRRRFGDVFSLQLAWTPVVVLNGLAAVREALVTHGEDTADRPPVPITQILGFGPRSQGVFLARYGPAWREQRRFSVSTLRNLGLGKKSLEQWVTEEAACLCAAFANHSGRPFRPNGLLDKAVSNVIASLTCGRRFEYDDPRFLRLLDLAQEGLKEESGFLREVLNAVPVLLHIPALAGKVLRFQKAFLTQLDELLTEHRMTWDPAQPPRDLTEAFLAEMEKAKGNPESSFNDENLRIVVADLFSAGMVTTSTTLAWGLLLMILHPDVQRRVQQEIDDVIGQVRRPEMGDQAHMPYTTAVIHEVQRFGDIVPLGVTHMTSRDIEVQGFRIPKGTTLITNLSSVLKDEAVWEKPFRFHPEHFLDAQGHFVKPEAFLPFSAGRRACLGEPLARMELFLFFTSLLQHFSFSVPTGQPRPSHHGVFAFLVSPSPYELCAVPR
Experimental: (§2) Pooled Human liver microsomes (Sigma-Aldrich; 0.25 mg/mL), 0.1 M phosphate buffer solution (pH 7.4), the five most commonly used substrate cocktails, such as 50 µM phenacetin (CYP1A2), 10 µM diclofenac […], 100 µM S-mephenytoin (CYP2C19) 5 µM dextromethorphan (CYP2D6), and 2.5 µM midazolam (CYP3A4), and compound 10 are pre-incubated at 37 °C for 5 min, then incubated with NADPH generation system solution for 15 min. To finish the enzymatic reaction, an acetonitrile solution (containing terfenadine) is added. The reaction tubes are centrifuged and the supernatant is withdrawn for analysis by LC–MS/MS.

[2] = Human liver microsomal stability; type: in vitro ADME; conditions: microsomes, pH 7.4
Experimental: (§3) To finish the reaction, an acetonitrile solution (involved in chlorpropamide) is added. The reaction tubes are centrifuged and the supernatant is withdrawn for analysis by LC–MS/MS.

in vitro [3] = type: in vitro ADME; conditions: rat, microsomes, pH 7.4
Experimental: as §3

[4] = system: human pancreatic cancer MiaPaCa-2 cells; experiment: Cell viability MTT assay, MiaPaCa-2; type: cell-based; conditions: MIA PaCa-2, MTT, 48 h, read-out: MiaPaCa-2 (GI50)
Experimental: (§4) The human pancreatic cancer cell lines, PANC-1 and MiaPaCa-2, human lung cancer A549 cells, human breast cancer MCF-7, and human glioma U87 cells were obtained from the Korean cell line bank (Seoul, Korea). The cells were cultured in Dulbecco’s Modified Eagle Medium (DMEM; ThermoFisher Scientific, Waltham, MA) supplemented with 10% fetal bovine serum (FBS; Sigma-Aldrich) and 1% penicillin/streptomycin (ThermoFisher Scientific). The cells were cultured at 37 °C in an atmosphere containing 5% CO2.
(§5) The potential cytotoxicity of compounds at different concentrations was evaluated using the MTT assay. Briefly, cancer cell lines were pre-incubated in 96-well plates with compounds for 48 h. Subsequently, MTT working solution (2 mg/mL in phosphate buffer solution) was added to each well and the plate was incubated for 4 h at 37 °C in an atmosphere containing 5% CO2. Then, the conditioned media were aspirated, and the formed formazan crystals in living cells were quantified using the microplate reader (Spectramax M2) at 540 nm. The concentrations that produce 50% cell growth inhibition (GI50) were calculated by curves constructed by the plot of cell survival by an assistant of PRISM software (GraphPad, San Diego, CA).

[5] = molecular target: T3, purified recombinant human LDHA protein (Homo sapiens, UniProt P00338); experiment: In vitro LDHA inhibitor activity (NADH fluorescence decrease); type: biochemical
T3 construct: purchased Abcam
Experimental: as §1
In vitro evaluation on LDHA inhibitor activity. LDHA activity assay was performed in accordance with previous studies[16],[18]. Briefly, the various concentrations of compounds were incubated with reaction buffer containing 20 mM HEPES-K^+, 20 μM NADH, 2 mM pyruvate, and 100 ng of purified recombinant human LDHA protein (Abcam, Cambridge, UK). The fluorescence of NADH, which has an excitation wavelength of 340 nm and an emission wavelength of 460 nm, was detected using a microplate spectrofluorometer (Spectramax M2; Molecular Devices, Sunnyvale, CA).

CYP3A4 = molecular target: T4, CYP3A4 (Homo sapiens, UniProt P08684); experiment: CYP isozymes activity assay, CYP3A4; type: in vitro ADME; conditions: microsomes, 0.1 µM
T4 construct: Pooled Human liver microsomes (Sigma-Aldrich; 0.25 mg/mL); tissue Sigma-Aldrich; host or cells: pooled human liver microsomes
T4 sequence (P08684 whole entry): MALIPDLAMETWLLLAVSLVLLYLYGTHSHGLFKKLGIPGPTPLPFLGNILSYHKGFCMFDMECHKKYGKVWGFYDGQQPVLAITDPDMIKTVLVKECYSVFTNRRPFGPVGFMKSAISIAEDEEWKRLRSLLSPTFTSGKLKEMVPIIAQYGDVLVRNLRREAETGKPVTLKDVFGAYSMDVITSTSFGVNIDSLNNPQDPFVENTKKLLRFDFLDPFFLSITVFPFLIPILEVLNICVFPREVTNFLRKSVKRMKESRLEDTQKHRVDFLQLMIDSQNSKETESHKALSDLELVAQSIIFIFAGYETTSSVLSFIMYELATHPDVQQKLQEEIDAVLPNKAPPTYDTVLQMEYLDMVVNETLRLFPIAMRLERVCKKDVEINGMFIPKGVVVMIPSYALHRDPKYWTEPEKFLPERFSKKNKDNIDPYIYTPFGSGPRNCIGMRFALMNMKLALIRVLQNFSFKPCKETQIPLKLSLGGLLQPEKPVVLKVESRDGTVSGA
Experimental: as §2

CYP2C19 = molecular target: T5, CYP2C19 (Homo sapiens, UniProt P33261); experiment: CYP isozymes activity assay, CYP2C19; type: in vitro ADME; conditions: microsomes, 0.1 µM
T5 construct: Pooled Human liver microsomes (Sigma-Aldrich; 0.25 mg/mL); tissue Sigma-Aldrich; host or cells: pooled human liver microsomes
T5 sequence (P33261 whole entry): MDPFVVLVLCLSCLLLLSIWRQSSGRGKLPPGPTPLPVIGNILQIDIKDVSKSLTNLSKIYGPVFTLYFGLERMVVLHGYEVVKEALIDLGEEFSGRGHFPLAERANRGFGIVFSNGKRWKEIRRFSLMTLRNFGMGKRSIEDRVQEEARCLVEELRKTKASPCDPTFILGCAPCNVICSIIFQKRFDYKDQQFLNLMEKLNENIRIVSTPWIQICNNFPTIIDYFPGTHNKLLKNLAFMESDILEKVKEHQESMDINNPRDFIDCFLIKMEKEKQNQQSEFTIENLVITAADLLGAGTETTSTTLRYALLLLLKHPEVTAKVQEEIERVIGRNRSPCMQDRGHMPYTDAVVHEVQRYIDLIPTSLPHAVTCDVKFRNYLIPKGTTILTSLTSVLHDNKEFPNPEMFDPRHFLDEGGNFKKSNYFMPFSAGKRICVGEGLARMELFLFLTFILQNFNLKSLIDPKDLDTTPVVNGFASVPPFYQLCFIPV
Experimental: as §2

[6] = system: human breast cancer MCF-7; experiment: Cell viability MTT assay, MCF-7; type: cell-based; conditions: MCF7, MTT, 48 h, read-out: MCF-7 (GI50)
Experimental: as §4, §5

[7] = system: human pancreatic cancer PANC-1 cells; experiment: Cell viability MTT assay, PANC-1; type: cell-based; conditions: Homo sapiens, PANC-1; MTT, 48 h; read-out: PANC-1 (GI50)
Experimental: as §4, §5

CYP1A2 = molecular target: T6, CYP1A2 (Homo sapiens, UniProt P05177); experiment: CYP isozymes activity assay, CYP1A2; type: in vitro ADME; conditions: microsomes, 0.1 µM
T6 construct: Pooled Human liver microsomes (Sigma-Aldrich; 0.25 mg/mL); tissue Sigma-Aldrich; host or cells: pooled human liver microsomes
T6 sequence (P05177 1-516): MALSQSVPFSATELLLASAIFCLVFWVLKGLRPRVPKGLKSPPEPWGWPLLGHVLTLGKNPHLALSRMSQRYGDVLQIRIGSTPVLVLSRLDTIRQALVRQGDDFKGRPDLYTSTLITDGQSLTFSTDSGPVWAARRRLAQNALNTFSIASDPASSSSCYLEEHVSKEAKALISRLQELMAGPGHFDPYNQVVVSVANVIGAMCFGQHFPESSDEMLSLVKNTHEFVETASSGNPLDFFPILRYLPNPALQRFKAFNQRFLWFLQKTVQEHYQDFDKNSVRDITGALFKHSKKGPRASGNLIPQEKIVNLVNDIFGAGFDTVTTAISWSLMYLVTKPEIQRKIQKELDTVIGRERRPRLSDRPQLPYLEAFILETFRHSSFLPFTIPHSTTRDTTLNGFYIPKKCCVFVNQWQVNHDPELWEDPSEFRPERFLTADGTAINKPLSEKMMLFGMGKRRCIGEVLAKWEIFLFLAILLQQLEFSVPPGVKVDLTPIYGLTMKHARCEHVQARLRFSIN
Experimental: as §2

[8] = system: human lung cancer A549 cells; experiment: Cell viability MTT assay, A549; type: cell-based; conditions: A549, MTT, 48 h, read-out: A549 (GI50)
Experimental: as §4, §5

human glioma U87 cells = experiment: Cell viability MTT assay, U87; type: cell-based; conditions: U-87 MG, MTT, 48 h, read-out: U87 (GI50)
Experimental: as §4, §5

in vitro [9] = type: in vitro ADME, human
Experimental: (§6) Human and rat plasma (Sigma-Aldrich) are incubated at 37 °C with test compounds. During the incubation, aliquots are withdrawn at 0, 30, 120 min time points and acetonitrile solution (containing chlorpropamide) is added. After vortexing, the aliquots are centrifuged and the supernatant is withdrawn for analysis by LC–MS/MS.

CYP2C9 = molecular target: T7, CYP2C9 (Homo sapiens, UniProt P11712); experiment: CYP isozymes activity assay, CYP2C9; type: in vitro ADME; conditions: microsomes, 0.1 µM
T7 construct: Pooled Human liver microsomes (Sigma-Aldrich; 0.25 mg/mL); tissue Sigma-Aldrich; host or cells: pooled human liver microsomes
T7 sequence (P11712 whole entry): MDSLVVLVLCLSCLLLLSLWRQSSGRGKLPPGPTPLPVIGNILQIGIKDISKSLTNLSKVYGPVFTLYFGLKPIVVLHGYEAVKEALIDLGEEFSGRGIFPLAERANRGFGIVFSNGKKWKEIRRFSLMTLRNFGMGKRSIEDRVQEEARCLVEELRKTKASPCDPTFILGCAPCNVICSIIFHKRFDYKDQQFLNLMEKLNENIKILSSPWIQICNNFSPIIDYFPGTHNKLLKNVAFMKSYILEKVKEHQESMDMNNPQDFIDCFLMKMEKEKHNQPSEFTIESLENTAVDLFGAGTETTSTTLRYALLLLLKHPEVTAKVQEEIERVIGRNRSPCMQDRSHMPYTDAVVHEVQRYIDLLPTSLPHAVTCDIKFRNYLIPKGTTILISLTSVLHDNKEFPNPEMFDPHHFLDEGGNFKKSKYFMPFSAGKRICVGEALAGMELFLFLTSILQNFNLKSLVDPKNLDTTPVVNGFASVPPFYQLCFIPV
Experimental: as §2

in vitro [10] = type: in vitro ADME, rat
Experimental: as §6

FC(F)(F)c1ccc(Sc2nc3ccccc3s2)cc1 [Compound 10]
IC50 [1]: > 1000 µM
CYP2D6 isozyme activity (% of control activity) (CYP2D6): 95.1 % of control activity
remaining at 0.5 h, 1 µM [2]: 9.5%
remaining at 0.5 h, 1 µM (in vitro [3]): 5.2%
GI50 [4]: 88.9 µM
LDHB/LDHA ([5]; ratio of LDHB IC50 to LDHA IC50 (selectivity)): > 21.18
IC50 ([5]; synthesized compounds, read-out: LDHA IC50): 47.2 µM
CYP3A4 isozyme activity (% of control activity) (CYP3A4): > 100 % of control activity
CYP2C19 isozyme activity (% of control activity) (CYP2C19): 12.1 % of control activity
GI50 [6]: 61.4 µM
GI50 [7]: 12.2 µM
CYP1A2 isozyme activity (% of control activity) (CYP1A2): 36.7 % of control activity
GI50 [8]: 56.5 µM
GI50 (human glioma U87 cells): 343 µM
plasma stability (in words) (in vitro [9]): stable
remaining at 0.5 h (in vitro [9]; human, plasma): 98.1%
remaining at 2 h (in vitro [9]; human, plasma): 91.6%
CYP2C9 isozyme activity (% of control activity) (CYP2C9): 97.4 % of control activity
plasma stability (in words) (in vitro [10]): stable
remaining at 0.5 h (in vitro [10]; rat, plasma): 93.8%
remaining at 2 h (in vitro [10]; rat, plasma): 87.5%
